# From patent US20220249399A1, “COMPOSITION COMPRISING AN ANTI-OXIDANT TO PRESERVE CORNEAL TISSUE” (University of lowa Research Foundation, priority 2019, published 2022)
# How the values were obtained:
# [1] = tested on: primary cultures of corneal endothelial cells; assay: Seahorse XFe96 mitochondrial respiration of primary cultures of corneal endothelial cells; type: cell-based, human; details: uncomplexed coenzyme Q10 (100 μM) or cyclodextrin alone vs diluent control
# Procedure: (§1) Human corneas were obtained by Iowa Lions Eye Bank (ILEB) from nondiabetic donors 60-75 years old and stored in Optisol GS (Bausch+Lomb, Irvine, Calif.) at 4° C. following procurement in accordance with Eye Bank Association of America and ILEB policies and procedures. Endothelial cells were isolated and cultured in Seahorse XFe96 well plates until they reached confluency. Purity of cell cultures were confirmed with anti-zonula occludens 1 (ZO-1) labeling of cellular tight junctions. Once confluent, cells were treated with different concentrations of cyclodextrin-coenzyme Q10 complex in culture (1 μM, 10 μM, or 100 μM) uncomplexed coenzyme Q10 (100 μM), cyclodextrin alone, or diluent control. Mitochondrial respiration was assayed by measuring oxygen consumption using the Seahorse XFe96 Extracellular Flux Analyzer (Agilent Technologies, Santa Clara, Calif.) over 120 minutes (9-minute intervals). Wells were labeled with a nuclear counterstain (DAPI) and nuclei were counted in each well to normalize respirometry data.
# Seahorse respiration assays were conducted with MitoQ with doses ranging from 0 to 10 μM. All experiments were performed on corneal endothelial cells in culture and analyzed using the XFe96 Extracellular Flux Analyzer.
# as §1, with “MitoQ with doses ranging from 0 to” for “different concentrations of cyclodextrin-coenzyme Q10 complex in culture (1 μM,”, “μM.” for “μM, or 100 μM) uncomplexed coenzyme Q10 (100 μM), cyclodextrin alone, or diluent control.”
# [2] = tested on: human donor corneal endothelial cells; assay: Apoptosis and necrosis assays on donor endothelial cell-Descemet membrane tissue after storage; type: cell-based; details: for corneal endothelial cell necrosis, change vs control: vs diluent control
# Procedure: Human corneal tissue pairs were obtained by Iowa Lions Eye Bank (ILEB) from nondiabetic donors 60-75 years old and stored in Optisol GS (Bausch+Lomb, Irvine, Calif.) at 4° C. following procurement in accordance with Eye Bank Association of America and ILEB policies and procedures. […] Descemet membrane and endothelial cell punches were collected and mounted onto the bottom of a Seahorse assay plate (cells facing upward). Mitochondrial respiration was assayed by measuring oxygen consumption using the Seahorse XFe24 Extracellular Flux Analyzer (Agilent Technologies, Santa Clara, Calif.) over 120 minutes (9-minute intervals). Punches were labeled with a nuclear counterstain (DAPI) and remaining tissues were mounted onto slides and labeled with 488A-Annexin V, Ethidium Homodimer III, and Hoechst 33342 (Apoptotic, Necrotic, and Healthy Cells Quantification Kit; Biotium, Fremont, Calif.) to assay cell health. Nuclei were counted in each punch to normalize respirometry data. Immunohistochemistry densitometry was measured using ImageJ software.
# (§2) Human corneal tissue pairs were obtained by Iowa Lions Eye Bank (ILEB) from nondiabetic donors 60-75 years old and stored in Optisol GS (Bausch+Lomb, Irvine, Calif.) at 4° C. following procurement in accordance with Eye Bank Association of America and ILEB policies and procedures. For 5 days prior to testing, but within 9 days of procurement, one stored tissue from a corneal pair was treated with 10 μM CoQ10, while the mate tissue was treated with diluent only as a control. Descemet membrane and endothelial cell punches were collected and mounted onto the bottom of a Seahorse assay plate (cells facing upward). Mitochondrial respiration was assayed by measuring oxygen consumption using the Seahorse XFe24 Extracellular Flux Analyzer (Agilent Technologies, Santa Clara, Calif.) over 120 minutes (9-minute intervals). Punches were labeled with a nuclear counterstain (DAPI) and remaining tissues were mounted onto slides and labeled with 488A-Annexin V, Ethidium Homodimer III, and Hoechst 33342 (Apoptotic, Necrotic, and Healthy Cells Quantification Kit; Biotium, Fremont, Calif.) to assay cell health. Nuclei were counted in each punch to normalize respirometry data. Immunohistochemistry densitometry was measured using ImageJ software.
# as §2, with “100” for “10”, “palmitate-BSA,” for “CoQ10,”, “BSA” for “diluent”
# In brief, excess EDM tissues from surrounding the punches used for metabolic assays were incubated with 488A-Annexin V, Ethidium Homodimer III, and Hoechst 33342 (Apoptotic, Necrotic, and Healthy Cells Quantification Kit; Biotium, Fremont, Calif.) to detect the apoptotic, necrotic, and entire cell populations, respectively. […]
# [3] = 10 μM ubiquinol vs diluent-treated mate cornea, 5 days, n = 9
# [4] = 10 μM ubiquinol, 5 days in Optisol-GS, n = 9 matched tissues
# [5] = palmitate-BSA treated tissues (100 μM), 5 days, n = 8 matched tissues
substance,measurement,setting,value
ubiquinol,mitochondrial spare respiratory capacity,[1],reduces mitochondrial spare respiratory capacity
same,protection against apoptosis and necrosis,"[2]; 1 μM coQ10, tissues in storage","protected not only against apoptosis, but also against necrosis"
same,apoptosis reduced in treated cells,"[2]; 10 μM CoQ10, 5 days in Optisol GS, vs diluent control (p=0.09)",29%
same,"corneal endothelial cell necrosis, change vs control","[2]; 10 μM CoQ10, 5 days in Optisol GS, listed as CoQ10",not changed
same,"corneal endothelial cell necrosis, change vs control","[2]; 10 μM CoQ10, 5 days in Optisol GS, listed as co-Q10",did not change
same,"corneal endothelial cell necrosis, change vs control","[2]; 10 μM CoQ10, 5 days in Optisol GS, listed as coenzyme Q10",did not change
same,"% Apoptotic, Mean Ratio: Ubiquinol/Control (95% CI)",[2]; [3],"Ratio: 0.90 (0.63, 1.29)"
same,"% Necrotic, Mean Ratio: Ubiquinol/Control (95% CI)",[2]; [3],"Ratio: 1.02 (0.91, 1.15)"
same,"% Apoptotic, Mean (SD)",[2]; [4],0.0040 (0.0047) %
same,"% Necrotic, Mean (SD)",[2]; [4],0.0263 (0.0070) %
same,"apoptosis, change vs controls","[2]; Example 13: 10 μM ubiquinol, 5 days in Optisol-GS (p=0.517)",no significant change
same,"cell necrosis, change vs controls","[2]; Example 13: 10 μM ubiquinol, 5 days in Optisol-GS (p=0.694)",no significant change
same,"% Apoptotic, Mean (SD)",[2]; [5],0.00053 (0.00062) %
same,"% Necrotic, Mean (SD)",[2]; [5],0.0628 (0.0532) %
same,CEC cell death in storage,[2]; ubiquinol supplemented corneal storage medium vs non-supplemented,decreased
